Results reported in article PMC8464955, “Prediction of Drug–Drug Interaction Potential of Tegoprazan Using Physiologically Based Pharmacokinetic Modeling and Simulation” (Pharmaceutics, 2021).
Where two headings read alike, the source gives them in different places.

Experiments:
[1] = molecular target: T1, CYP2D6 (Homo sapiens, UniProt P10635); assay: Intrinsic clearance in human liver microsomes with CYP inhibitors; format: in vitro ADME
T1 construct: from tissue; host or cells: human liver microsomes
T1 sequence (P10635 whole entry): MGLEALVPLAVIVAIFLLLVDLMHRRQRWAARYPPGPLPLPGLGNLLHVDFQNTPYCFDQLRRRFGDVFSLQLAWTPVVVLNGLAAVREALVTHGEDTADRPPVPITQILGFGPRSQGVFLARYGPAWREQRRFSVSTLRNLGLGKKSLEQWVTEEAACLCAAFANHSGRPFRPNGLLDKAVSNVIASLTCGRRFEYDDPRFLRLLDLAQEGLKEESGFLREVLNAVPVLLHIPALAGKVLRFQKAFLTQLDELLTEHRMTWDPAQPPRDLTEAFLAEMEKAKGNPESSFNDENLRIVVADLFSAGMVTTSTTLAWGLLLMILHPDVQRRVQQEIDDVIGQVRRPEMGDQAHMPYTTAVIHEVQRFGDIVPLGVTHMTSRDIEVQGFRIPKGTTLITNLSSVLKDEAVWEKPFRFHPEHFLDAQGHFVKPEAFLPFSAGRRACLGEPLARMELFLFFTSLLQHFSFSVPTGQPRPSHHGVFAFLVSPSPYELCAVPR
Procedure: (§1) The elimination of the PBPK model consisted of enzyme kinetic and renal clearance (Table 1). Intrinsic clearances (CLint) of tegoprazan by various CYPs were determined by an in vitro study that measured the fraction of CLint inhibited by adding the inhibitors of CYP1A2, CYP2C9, CYP2C19, CYP2D6, and CYP3A to human liver microsomes (in-house data). Based on the in vitro data, an in vitro to in vivo extrapolation (IVIVE) approach was used to estimate the in vivo CLint by each CYP enzyme. Renal clearance as an additional clearance was used from the result of a single-oral-dose study of tegoprazan 100 mg.

[2] = molecular target: T2, CYP2C19 (Homo sapiens, UniProt P33261); assay: as above; format: in vitro ADME
T2 construct: from tissue; host or cells: human liver microsomes
T2 sequence (P33261 whole entry): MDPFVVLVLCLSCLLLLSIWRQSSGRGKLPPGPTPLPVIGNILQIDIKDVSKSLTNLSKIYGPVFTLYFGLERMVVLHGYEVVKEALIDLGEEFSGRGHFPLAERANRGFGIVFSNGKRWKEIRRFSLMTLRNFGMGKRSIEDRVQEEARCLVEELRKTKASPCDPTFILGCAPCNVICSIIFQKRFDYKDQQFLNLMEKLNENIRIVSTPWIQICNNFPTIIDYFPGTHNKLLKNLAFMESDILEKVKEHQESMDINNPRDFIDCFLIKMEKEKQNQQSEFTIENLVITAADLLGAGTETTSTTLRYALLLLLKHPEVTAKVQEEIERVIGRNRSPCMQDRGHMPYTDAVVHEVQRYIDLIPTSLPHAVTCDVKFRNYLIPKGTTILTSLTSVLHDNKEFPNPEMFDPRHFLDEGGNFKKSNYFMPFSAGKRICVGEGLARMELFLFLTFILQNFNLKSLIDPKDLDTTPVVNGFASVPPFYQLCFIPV
Procedure: as §1

[3] = molecular target: T3, CYP2C9 (Homo sapiens, UniProt P11712); assay: as above; format: in vitro ADME
T3 construct: from tissue; host or cells: human liver microsomes
T3 sequence (P11712 whole entry): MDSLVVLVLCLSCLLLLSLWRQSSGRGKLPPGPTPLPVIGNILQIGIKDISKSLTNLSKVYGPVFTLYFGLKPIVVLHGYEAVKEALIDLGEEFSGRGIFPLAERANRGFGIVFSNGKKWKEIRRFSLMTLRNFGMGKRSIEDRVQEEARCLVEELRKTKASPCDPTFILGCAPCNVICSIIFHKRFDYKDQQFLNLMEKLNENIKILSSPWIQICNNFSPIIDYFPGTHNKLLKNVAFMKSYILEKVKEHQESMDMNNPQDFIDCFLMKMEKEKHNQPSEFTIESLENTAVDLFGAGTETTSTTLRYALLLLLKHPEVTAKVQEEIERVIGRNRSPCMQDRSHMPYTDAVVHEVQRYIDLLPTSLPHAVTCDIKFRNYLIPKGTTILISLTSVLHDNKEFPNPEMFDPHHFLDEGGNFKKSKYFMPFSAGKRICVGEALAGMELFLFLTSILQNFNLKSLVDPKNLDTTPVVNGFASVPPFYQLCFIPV
Procedure: as §1

[4] = Physicochemical properties (log P, pKa), experimental data; details: for pKa: ampholyte
Text: (§2) A PBPK model of tegoprazan was built and verified by both the bottom-up approach using in vitro data for maintaining a mechanistic PBPK structure and the top-down approach using clinical PK results for maintaining a descriptive structure (Figure 1). The initial PBPK model of tegoprazan was constructed using physicochemical properties (e.g., molecular weight, log P, pKa), in vitro data (e.g., permeability, intrinsic clearance), and in vivo data (e.g., renal clearance) provided by HK inno.N Corp. (Seoul, Korea). The commercially available software SimCYP simulator v19 (SimCYP Limited, Certara, Sheffield, UK) was used to build the PBPK model and to generate the PK simulations. The PBPK-model-predicted PK profiles and parameters of tegoprazan were compared with the observed PK profiles and parameters from previously conducted clinical studies (Supplementary Table S1). The specific model configuration related to absorption, distribution, and elimination is described below.

[5] = Clinical DDI studies of tegoprazan with clarithromycin or clarithromycin/amoxicillin (observed); format: in vivo, human
Procedure: The established PBPK model was verified by applying the predicted values to the clinical PK data from various phase 1 studies conducted with healthy male adults (Supplementary Table S2). Brief information about the clinical studies follows: study 1 (single-dose PK study), a single dose of tegoprazan 25 mg and 50 mg was orally administered; study 2 (food effect study), a single dose of tegoprazan 50 mg was orally administered in both fasted and fed states; study 3 (bioequivalence study of two formulations), a single dose of two different formulations with tegoprazan 100 mg was orally administered; study 4 (multiple-dose PK study), multiple doses of tegoprazan 50 mg and 100 mg were orally administered once daily for 7 days; study 5 (DDI study with clarithromycin), multiple doses of tegoprazan 200 mg were orally administered once daily with or without multiple doses of clarithromycin 500 mg twice daily for 5 days; and study 6 (DDI study with clarithromycin and amoxicillin), multiple doses of tegoprazan 100 mg were orally administered twice daily with or without multiple doses of clarithromycin/amoxicillin 500/1000 mg twice daily for 5 days or 7 days.
After refining and verifying the PBPK model of tegoprazan as a single agent, the DDI between tegoprazan and clarithromycin was finally verified using data from DDI clinical studies. To verify the predictability of the DDI estimated by the PBPK model of tegoprazan, the model-predicted PK profiles, parameters, and fold-increase of parameters were compared with the observed PK data measured in clinical studies (i.e., studies 5 and 6). In the case of study 6, the observed data were generated under the condition of triple administration of tegoprazan, clarithromycin, and amoxicillin. […] When simulating the DDI between tegoprazan and clarithromycin, the PBPK model of clarithromycin available in the SimCYP compound file was used.

[6] = Blood:plasma partition ratio and fraction unbound in plasma, experimental data; format: in vitro ADME
[7] = PBPK model (SimCYP) prediction of tegoprazan PK; set-up: species or system human; details: estimated from clinical data, single dose 50 mg
Text: as §2
The advanced dissolution, absorption, and metabolism model was used. The unbound fraction of the drug in enterocytes (fuGut) and the human jejunum effective permeability (Peff,man) were predicted because these values were not routinely measured (Table 1). […]
The elimination of the PBPK model consisted of enzyme kinetic and renal clearance (Table 1). Intrinsic clearances (CLint) of tegoprazan by various CYPs were determined by an in vitro study that measured the fraction of CLint inhibited by adding the inhibitors of CYP1A2, CYP2C9, CYP2C19, CYP2D6, and CYP3A to human liver microsomes (in-house data). […]
The PBPK model of tegoprazan as a single agent was verified using data from clinical studies of single- and multiple-dose administration of different dosages of tegoprazan. To verify the PK predictability of the PBPK model, the model-predicted PK profiles and parameters were compared with the observed PK profiles and parameters measured in clinical studies. […]

[8] = tested on: gastric H^+/K^+-ATPase; set-up: method as in PMID 31437865; details: from 50 mg to 400 mg; cited from earlier work
[9] = tegoprazan 100 mg BID with vs without clarithromycin 500 mg BID + amoxicillin 1000 mg BID
[10] = tegoprazan 200 mg QD with vs without clarithromycin 500 mg BID

Question: Which results are given for Cc1nc2cc(C(=O)N(C)C)cc(O[C@H]3CCOc4cc(F)cc(F)c43)c2[nH]1 [tegoprazan]?
Answer: CYP2D6 CLint [1]: 2 μL/min/mg of protein; CYP2C19 CLint [2]: 3.6 μL/min/mg of protein; CYP2C9 CLint [3]: 2.6 μL/min/mg of protein; pKa ([4]; read-out: pKa 1): 5.2; pKa ([4]; read-out: pKa 2): 12; logP ([4]; octanol/water, read-out: Log P (octanol:water partition coefficient)): 3; Fold Increase Obs. AUCR [5, 9]: 2.69; Fold Increase Obs. CmaxR [5, 9]: 2.24; Fold Increase Obs. AUCR [5, 10]: 2.57; Fold Increase Obs. CmaxR [5, 10]: 1.66; blood plasma ratio ([6]; blood and plasma, read-out: B/P (blood:plasma partition ratio)): 0.868; fraction unbound ([6]; plasma, read-out: fu (fraction unbound in plasma)): 0.124; Q (blood flow between central compartment and SAC) [7]: 24.4 L/h; VSAC (volume of the single adjusted compartment) [7]: 0.66 L/kg; Kp ([7]; male, human, oral, read-out: Kp scalar): 0.33; magnitude of acid suppression [8]: increases in a dose-dependent manner
